What was measured:
Format in all cases: in vivo
[1] = system: Diabrotica Balteata (Corn Root Worm); test: Activity against Diabrotica balteata (corn root worm), sprayed maize sprouts; conditions: 96 h, application rate 200 ppm, L2 larvae on sprayed maize sprouts, 4 days after infestation, read-out: effect in at least one of the two categories (mortality or growth inhibition)
Description: Example B1: Activity Against Diabrotica Balteata (Corn Root Worm)
Maize sprouts placed onto an agar layer in 24-well microtiter plates were treated with aqueous test solutions prepared from 10′000 ppm DMSO stock solutions by spraying. After drying, the plates were infested with L2 larvae (6 to 10 per well). The samples were assessed for mortality and growth inhibition in comparison to untreated samples 4 days after infestation.

[2] = system: Myzus persicae (Green Peach Aphid); test: Activity against Myzus persicae (green peach aphid), feeding/contact activity; conditions: foliar, 144 h, application rate 200 ppm, sprayed sunflower leaf discs, aphid population of mixed ages, 6 days after infestation
Description: Example B2: Activity Against Myzus persicae (Green Peach Aphid) Feeding/Contact Activity
Sunflower leaf discs were placed onto agar in a 24-well microtiter plate and sprayed with aqueous test solutions prepared from 10′000 ppm DMSO stock solutions. After drying, the leaf discs were infested with an aphid population of mixed ages. The samples were assessed for mortality 6 days after infestation.

[3] = system: Spodoptera littoralis (Egyptian Cotton Leaf Worm); test: Activity against Spodoptera littoralis (Egyptian cotton leaf worm); conditions: foliar, 72 h, application rate 200 ppm, sprayed cotton leaf discs, L1 larvae, 3 days after infestation
Description: Example B3: Activity Against Spodoptera littoralis (Egyptian Cotton Leaf Worm)
Cotton leaf discs were placed onto agar in 24-well microtiter plates and sprayed with aqueous test solutions prepared from 10′000 ppm DMSO stock solutions. After drying the leaf discs were infested with five L1 larvae. The samples were assessed for mortality, anti-feeding effect, and growth inhibition in comparison to untreated samples 3 days after infestation. Control of Spodoptera littoralis by a test sample is given when at least one of the categories mortality, anti-feedant effect, and growth inhibition is higher than the untreated sample.

[4] = system: Chilo suppressalis (Striped Rice Stemborer); test: Activity against Chilo suppressalis (striped rice stemborer); conditions: 144 h, application rate 200 ppm, artificial diet, L2 larvae, 6 days after infestation
Description: Example B5: Activity Against Chilo suppressalis (Striped Rice Stemborer)
24-well microtiter plates with artificial diet were treated with aqueous test solutions prepared from 10′000 ppm DMSO stock solutions by pipetting. After drying, the plates were infested with L2 larvae (6-8 per well). The samples were assessed for mortality, anti-feeding effect, and growth inhibition in comparison to untreated samples 6 days after infestation. Control of Chilo suppressalis by a test sample is given when at least one of the categories mortality, anti-feedant effect, and growth inhibition is higher than the untreated sample.

[5] = system: Euschistus heros (Neotropical Brown Stink Bug); test: Activity against Euschistus heros (neotropical brown stink bug); conditions: 120 h, application rate 200 ppm, sprayed soybean leaves, N2 nymphs, 5 days after infestation, read-out: effect in at least one of the two categories (mortality or growth inhibition)
Description: Example B6: Activity Against Euschistus heros (Neotropical Brown Stink Bug)
Soybean leaves on agar in 24-well microtiter plates were sprayed with aqueous test solutions prepared from 10′000 ppm DMSO stock solutions. After drying the leaves were infested with N2 nymphs. The samples were assessed for mortality and growth inhibition in comparison to untreated samples 5 days after infestation.

[6] = system: Plutella xylostella (Diamond Back Moth); test: Activity against Plutella xylostella (diamond back moth); conditions: 192 h, application rate 200 ppm, artificial diet, Plutella eggs, 8 days after infestation, read-out: effect in at least one of the two categories (mortality or growth inhibition)
Description: Example B8: Activity Against Plutella xylostella (Diamond Back Moth)
24-well microtiter plates with artificial diet were treated with aqueous test solutions prepared from 10′000 ppm DMSO stock solutions by pipetting. After drying, Plutella eggs were pipetted through a plastic stencil onto a gel blotting paper and the plate was closed with it. The samples were assessed for mortality and growth inhibition in comparison to untreated samples 8 days after infestation.

[7] = system: Nilaparvata lugens (Brown Plant Hopper); test: Activity against Nilaparvata lugens (brown plant hopper), larvicide, systemic into water; conditions: 168 h, application rate 12.5 ppm, rice plants in nutritive solution, N3 nymphs, 7 days after infestation
Description: Example B9: Activity Against Nilaparvata lugens (Brown Plant Hopper) Larvicide, Systemic into Water
Rice plants cultivated in a nutritive solution were treated with the diluted test solutions into nourishing cultivation system. 1 day after application plants were infested with ˜20 N3 nymphs. 7 days after infestation samples were assessed for mortality and growth regulation.

[8] = system: Carpocapsa (Cydia) Pomonella (Codling Moth); test: Activity against Carpocapsa (Cydia) pomonella (codling moth), larvicide, feeding/contact; conditions: 336 h, application rate 12.5 ppm, sprayed diet cubes, L1 larvae, 14 days after infestation
Description: Example B10: Activity Against Carpocapsa (Cydia) Pomonella (Codling Moth) Larvicide, Feeding/Contact
Diet cubes coated with paraffin were sprayed with diluted test solutions in an application chamber. After drying off the treated cubes (10 replicates) were infested with 1 L1 larvae. Samples were incubated at 26-27° C. and checked 14 days after infestation for mortality and growth inhibition.

[9] = system: Bemisia tabaci (Cotton White Fly); test: Activity against Bemisia tabaci (cotton white fly); conditions: foliar, 144 h, application rate 200 ppm, sprayed cotton leaf discs, adult white flies, 6 days after incubation
Description: Example B4: Activity Against Bemisia tabaci (Cotton White Fly)
Cotton leaf discs were placed on agar in 24-well microtiter plates and sprayed with aqueous test solutions prepared from 10′000 ppm DMSO stock solutions. After drying the leaf discs were infested with adult white flies. The samples were checked for mortality 6 days after incubation.

[10] = system: Frankliniella occidentalis (Western Flower Thrips); test: Activity against Frankliniella occidentalis (western flower thrips); conditions: foliar, 168 h, application rate 200 ppm, sprayed sunflower leaf discs, population of mixed ages, 7 days after infestation
Description: Example B7: Activity Against Frankliniella occidentalis (Western Flower Thrips)
Sunflower leaf discs were placed on agar in 24-well microtiter plates and sprayed with aqueous test solutions prepared from […] stock solutions. After drying the leaf discs were infested with a Frankliniella population of mixed ages. The samples were assessed for mortality 7 days after infestation.

[11] = system: Myzus persicae (Green Peach Aphid); test: Myzus persicae (green peach aphid), systemic activity; conditions: 144 h, test rate 24 ppm, roots of infested pea seedlings in test solution, 6 days
Description: Example B11: Myzus persicae (Green Peach Aphid). Systemic Activity
Roots of pea seedlings infested with an aphid population of mixed ages were placed directly into aqueous test solutions prepared from 10′000 DMSO stock solutions. The samples were assessed for mortality 6 days after placing seedlings into test solutions.

CCS(=O)(=O)c1c(N2Cc3ncc(C(F)(F)F)cc3C2=O)nn2cc(C3CC3)ccc12 [Compound P1, 6-(6-cyclopropyl-3-ethylsulfonyl-pyrazolo[1,5-a]pyridin-2-yl)-3-(trifluoromethyl)-7H-pyrrolo[3,4-b]pyridin-5-one]
≥ 80%: percent effect (mortality or growth inhibition) at 200 ppm [1] | mortality at 200 ppm [2] | percent control (mortality, anti-feedant effect or growth inhibition) at 200 ppm [3] | percent control (mortality, anti-feedant effect or growth inhibition) at 200 ppm [4] | percent effect (mortality or growth inhibition) at 200 ppm [5] | percent effect (mortality or growth inhibition) at 200 ppm [6] | mortality at 12.5 ppm [7] | mortality at 12.5 ppm [8]

CCS(=O)(=O)c1c(N2Cc3ccc(OC(F)(F)F)cc3C2=O)nn2ccc(C(F)(F)F)cc12 [Compound P2, 2-[3-ethylsulfonyl-5-(trifluoromethyl)pyrazolo[1,5-a]pyridin-2-yl]-6-(trifluoromethoxy)isoindolin-1-one]
≥ 80%: percent effect (mortality or growth inhibition) at 200 ppm [1] | mortality at 200 ppm [2] | percent control (mortality, anti-feedant effect or growth inhibition) at 200 ppm [3] | mortality at 200 ppm [9] | percent control (mortality, anti-feedant effect or growth inhibition) at 200 ppm [4] | percent effect (mortality or growth inhibition) at 200 ppm [6] | mortality at 12.5 ppm [8]

CCS(=O)(=O)c1c(N2Cc3ccc(S(=O)(=O)C(F)(F)F)cc3C2=O)nn2ccc(C(F)(F)F)cc12 [Compound P3, 2-[3-ethylsulfonyl-5-(trifluoromethyl)pyrazolo[1,5-a]pyridin-2-yl]-6-(trifluoromethylsulfonyl)isoindolin-1-one]
≥ 80%: percent effect (mortality or growth inhibition) at 200 ppm [1] | mortality at 200 ppm [2] | percent control (mortality, anti-feedant effect or growth inhibition) at 200 ppm [3] | percent control (mortality, anti-feedant effect or growth inhibition) at 200 ppm [4] | mortality at 200 ppm [10] | percent effect (mortality or growth inhibition) at 200 ppm [6] | mortality at 12.5 ppm [8]

CCS(=O)(=O)c1c(N2Cc3ncc(C(F)(F)F)cc3C2=O)nn2cc(C3(C#N)CC3)ccc12 [Compound P4, 1-[3-ethylsulfonyl-2-[5-oxo-3-(trifluoromethyl)-7H-pyrrolo[3,4-b]pyridin-6-yl]pyrazolo[1,5-a]pyridin-6-yl]cyclopropanecarbonitrile]
≥ 80%: percent effect (mortality or growth inhibition) at 200 ppm [1] | mortality at 200 ppm [2] | percent control (mortality, anti-feedant effect or growth inhibition) at 200 ppm [3] | percent control (mortality, anti-feedant effect or growth inhibition) at 200 ppm [4] | percent effect (mortality or growth inhibition) at 200 ppm [5] | mortality at 200 ppm [10] | percent effect (mortality or growth inhibition) at 200 ppm [6] | mortality at 12.5 ppm [7] | mortality at 12.5 ppm [8]

CCS(=O)(=O)c1c(N2Cc3ncc(C(F)(F)F)cc3C2=O)nn2ccc(C(F)(F)F)cc12 [Compound P5, 6-[3-ethylsulfonyl-5-(trifluoromethyl)pyrazolo[1,5-a]pyridin-2-yl]-3-(trifluoromethyl)-7H-pyrrolo[3,4-b]pyridin-5-one]
≥ 80%: percent effect (mortality or growth inhibition) at 200 ppm [1] | percent control (mortality, anti-feedant effect or growth inhibition) at 200 ppm [3] | percent control (mortality, anti-feedant effect or growth inhibition) at 200 ppm [4] | percent effect (mortality or growth inhibition) at 200 ppm [5] | percent effect (mortality or growth inhibition) at 200 ppm [6] | mortality at 12.5 ppm [7] | mortality at 12.5 ppm [8]

CCS(=O)(=O)c1c(N2Cc3ncc(C(F)(F)F)cc3C2=O)nn2cc(C(F)(F)F)ccc12 [Compound P6, 6-[3-ethylsulfonyl-6-(trifluoromethyl)pyrazolo[1,5-a]pyridin-2-yl]-3-(trifluoromethyl)-7H-pyrrolo[3,4-b]pyridin-5-one]
≥ 80%: percent effect (mortality or growth inhibition) at 200 ppm [1] | mortality at 200 ppm [2] | percent control (mortality, anti-feedant effect or growth inhibition) at 200 ppm [3] | percent control (mortality, anti-feedant effect or growth inhibition) at 200 ppm [4] | percent effect (mortality or growth inhibition) at 200 ppm [6] | mortality at 12.5 ppm [7] | mortality at 12.5 ppm [8]

CCS(=O)(=O)c1c(N2Cc3ncc(C(F)(F)F)cc3C2=O)nn2cc(C(C)(C)C#N)ccc12 [Compound P7, 2-[3-ethylsulfonyl-2-[5-oxo-3-(trifluoromethyl)-7H-pyrrolo[3,4-b]pyridin-6-yl]pyrazolo[1,5-a]pyridin-6-yl]-2-methyl-propanenitrile]
≥ 80%: percent effect (mortality or growth inhibition) at 200 ppm [1] | mortality at 200 ppm [2] | percent control (mortality, anti-feedant effect or growth inhibition) at 200 ppm [3] | percent control (mortality, anti-feedant effect or growth inhibition) at 200 ppm [4] | percent effect (mortality or growth inhibition) at 200 ppm [5] | mortality at 200 ppm [10] | percent effect (mortality or growth inhibition) at 200 ppm [6] | mortality at 24 ppm [11]

Reference: patent US20230348496A1, “PESTICIDALLY ACTIVE HETEROCYCLIC DERIVATIVES WITH SULFUR CONTAINING SUBSTITUENTS” (SYNGENTA CROP PROTECTION AG, priority 2020, published 2023)
